According to patent US20090137553A1, “Thiazepine Oxazolidinones as Antibacterial Agents” (Pharmacia and Upjohn Company LLC, priority 2004, published 2009):
In brackets after ≈: the same amount, converted by molar mass.

How the values were obtained:
Format in all cases: cell-based
S. pyogenes (C203) = test: In vitro antibacterial activity (MIC), S. pyogenes; settings: Streptococcus pyogenes; strain C203; lowest concentration preventing macroscopically visible growth; read-out: Minimum Inhibitory concentrations S. pyogenes (C203)
Description: (§1) The in vitro antibacterial activity of the compounds of the present invention may be assessed by following procedures recommended in (1) National Committee for Clinical Laboratory Standards (January 2003), Methods for dilution antimicrobial tests for bacteria that grow aerobically, Approved Standard (6th ed), M7-A6, NCCLS, Wayne, Pa.; (2) National Committee for Clinical Laboratory Standards (March 2001), Methods for antimicrobial susceptibility testing of anaerobic bacteria, Approved Standard (5th ed), M11-A4, NCCLS, Wayne, Pa.; (3) National Committee for Clinical Laboratory Standards (January 2003), MIC testing supplemental tables, M100-S13 (for use with M7-A6), NCCLS, Wayne, Pa.; and (4) Murray P R, Baron E J, Jorgensen J H, et al. Manual of Clinical Microbiology (8th ed) Washington, D.C.: American Society for Microbiology Press, 2003. The antibacterial activity can be presented in the form of MIC value. The MIC value is the lowest concentration of drug which prevented macroscopically visible growth under the conditions of the test.

S. pneumoniae (SV-1) = test: In vitro antibacterial activity (MIC), S. pneumoniae; settings: Streptococcus pneumoniae; strain SV-1; lowest concentration preventing macroscopically visible growth; read-out: Minimum Inhibitory concentrations S. pneumoniae (SV-1)
Description: as §1

S. aureus (UC-76) = test: In vitro antibacterial activity (MIC), S. aureus; settings: Staphylococcus aureus, UC76; strain UC-76; lowest concentration preventing macroscopically visible growth; read-out: Minimum Inhibitory concentrations S. aureus (UC-76)
Description: as §1

SMILES | MIC (S. pyogenes (C203)) | MIC (S. pneumoniae (SV-1)) | MIC (S. aureus (UC-76))
CNC(=O)[C@H]1CN(c2cc(F)c(N3CCC/S(=N\C(=O)C(F)(F)F)CC3)c(F)c2)C(=O)O1 (stereo in doubt) [Example 7, 3-{3,5-difluoro-4-[1-(2,2,2-trifluoro-acetylimino)-1λ^4-[1,4]thiazepan-4-yl]-phenyl}-2-oxo-oxazolidine-5-carboxylic acid methylamide] | 8 µg/mL (≈ 16.6 µM) | 8 µg/mL (≈ 16.6 µM) | 8 µg/mL (≈ 16.6 µM)
NC(=O)[C@H]1CN(c2cc(F)c(N3CCCSCC3)c(F)c2)C(=O)O1 [Example 1, 3-[3,5-difluoro-4-(1,4-thiazepan-4-yl)-phenyl]-2-oxo-oxazolidine-5-carboxylic acid amide] | 2 µg/mL (≈ 5.6 µM) | 4 µg/mL (≈ 11.2 µM) | 2 µg/mL (≈ 5.6 µM)
CNC(=O)[C@H]1CN(c2cc(F)c(N3CCCSCC3)c(F)c2)C(=O)O1 [Example 2, 3-[3,5-difluoro-4-(1,4-thiazepan-4-yl)-phenyl]-2-oxo-oxazolidine-5-carboxylic acid methylamide] | 2 µg/mL (≈ 5.38 µM) | 4 µg/mL (≈ 10.8 µM) | 2 µg/mL (≈ 5.38 µM)
NC(=O)[C@H]1CN(c2cc(F)c(N3CCCS(=O)(=O)CC3)c(F)c2)C(=O)O1 [Example 3, 3-[4-(1,1-dioxo-1λ^6-[1,4]thiazepan-4-yl)-3,5-difluoro-phenyl]-2-oxo-oxazolidine-5-carboxylic acid amide] | 2 µg/mL (≈ 5.14 µM) | 4 µg/mL (≈ 10.3 µM) | 2 µg/mL (≈ 5.14 µM)
CNC(=O)[C@H]1CN(c2cc(F)c(N3CCCS(=O)(=O)CC3)c(F)c2)C(=O)O1 [Example 4, 3-[4-(1,1-dioxo-1λ^6-[1,4]thiazepan-4-yl)-3,5-difluoro-phenyl]-2-oxo-oxazolidine-5-carboxylic acid methylamide] | 2 µg/mL (≈ 4.96 µM) | 4 µg/mL (≈ 9.92 µM) | 2 µg/mL (≈ 4.96 µM)
CONC(=O)[C@H]1CN(c2cc(F)c(N3CCCS(=O)(=O)CC3)c(F)c2)C(=O)O1 [Example 5, 3-[4-(1,1-dioxo-1λ^6-[1,4]thiazepan-4-yl)-3,5-difluoro-phenyl]-2-oxo-oxazolidine-5-carboxylic acid methoxy-amide] | 4 µg/mL (≈ 9.54 µM) | 8 µg/mL (≈ 19.1 µM) | 4 µg/mL (≈ 9.54 µM)
NC(=O)[C@H]1CN(c2cc(F)c(N3CCC/S(=N\C(=O)C(F)(F)F)CC3)c(F)c2)C(=O)O1 (stereo partly drawn) [Example 6, 3-{3,5-difluoro-4-[1-(2,2,2-trifluoro-acetylimino)-114-[1,4]thiazepan-4-yl]-phenyl}-2-oxo-oxazolidine-5-carboxylic acid amide] | 8 µg/mL (≈ 17.1 µM) | 8 µg/mL (≈ 17.1 µM) | 8 µg/mL (≈ 17.1 µM)
CNC(=O)[C@H]1CN(c2ccc(N3CCCSCC3)c(F)c2)C(=O)O1 [Example 9, 5(R)-3-[3-Fluoro-4-(1,4-thiazepan-4-yl)-phenyl]-2-oxo-oxazolidine-5-carboxylic acid methylamide] | 4 µg/mL (≈ 11.3 µM) | 8 µg/mL (≈ 22.6 µM) | 8 µg/mL (≈ 22.6 µM)
CNC(=O)[C@H]1CN(c2ccc(N3CCC[S+]([O-])CC3)c(F)c2)C(=O)O1 (stereo partly drawn) [Example 11, 5(R)-3-[-fluoro-4-(1-oxo-1λ^4-[1,4]thiazepan-4yl)-phenyl]-2-oxo-oxazolidine-5-carboxylic acid methyl amide] | 1 µg/mL (≈ 2.71 µM) | 4 µg/mL (≈ 10.8 µM) | 2 µg/mL (≈ 5.41 µM)
NC(=O)[C@H]1CN(c2ccc(N3CCC[S+]([O-])CC3)c(F)c2)C(=O)O1 (stereo partly drawn) [Example 12, 5(R)-3-[3-fluoro4-(1-oxo-1-[1,4]thiazepan-4-yl)-phenyl]-2-oxo-oxazolidine-5-carboxylic acid amide] | 1 µg/mL (≈ 2.81 µM) | 4 µg/mL (≈ 11.3 µM) | 2 µg/mL (≈ 5.63 µM)
CNC(=O)[C@H]1CN(c2ccc(N3CCCS(=O)(=O)CC3)c(F)c2)C(=O)O1 [Example 13, 5(R)-3-[4-(1,1-dioxo-1λ^6-[1,4]thiazepan-4-yl)-3-fluoro-phenyl]-2-oxo-oxazolidine-5-carboxylic acid methyl amide] | 1 µg/mL (≈ 2.59 µM) | 2 µg/mL (≈ 5.19 µM) | 12 µg/mL (≈ 31.1 µM)
